According to US20030180339A1, “Topical treatment of skin” (priority 2002, published 2003):

Test system: sebum
Experiment: Oil reduction potential of moisturising gels, blinded randomised study in India, Sebumeter SM810 (Example 34)
Format: in vivo, human
Description: A study was conducted on 37 normal volunteers in India to determine the oil reduction potential of moisturising gels containing sebum reduction agents.
This study was a blinded, randomised study comparing 2 test gels (containing Cedar wood and Poplar bud) with standard preparation (containing Elubiol).
Women volunteers between the age of 17 and 19 years were screened by measuring sebumeter readings of the left forehead using a Sebumeter SM810. Those volunteers had subumeter reading of […] or above.
These volunteers were instructed to avoid any other face cream, face wash or any other cosmetics during the 8 weeks of the study. After recruitment, volunteers were instructed to use the face wash for the first 2 weeks. This period was considered as the conditioning period.
A baseline sebumeter reading was taken at the end of the conditioning period on 4 sites i.e. left forehead, left cheek, right forehead, and right cheek. Tubes containing the test medicines (which were coded and randomly allocated to each site) were dispensed to the volunteers. Each volunteer was given two test gels, one for left side of the face and the other for right side of the face. […]
The volunteer was requested to make a note of application of face wash and face cream daily on the given diary sheets. Sebumeter readings were taken 3 weeks and 6 weeks later.

CCOC(=O)N1CCN(c2ccc(OC[C@H]3CO[C@](Cn4ccnc4)(c4ccc(Cl)cc4Cl)O3)cc2)CC1 [Elubiol, dichlorophenyl-imidazoltioxolan]
effect on sebumeter readings, comparison between treatments (at 6 weeks): improved | fall in the sebum reading at 6 weeks as compared to 3 weeks (gel twice a day): significantly greater fall
